Experimental data as given in ChEMBL document CHEMBL5370621, “Design, Synthesis, and Biological Evaluation of Novel Thioureidobenzamide (TBA) Derivatives as HBV Capsid Assembly Modulators” (J Med Chem, 2023).
The source made the active and inactive calls. No cut-off for these calls is given here.

Tests used:
[1] = Intrinsic clearance in human liver microsomes at 100 uM preincubated for 10 mins followed by incubation with NADPH regenerating system for 30 mins and measured per mg protein by LC-MS/MS analysis; format: ADME, Microsome; conditions: time 40 min, read-out: CLH
Core antigen = Core antigen (Hepatitis B virus, UniProt Q03732); test: Inhibition of fluorescent-labeled capsid assembly in Hepatitis B virus incubated for 1 hr by fluorescence based analysis
[2] = Cytotoxicity against human HePAD38 cells assessed as reduction in cell viability incubated for 72 hrs by CCK8 assay; format: toxicity, cell-based
Hepatitis B virus [3] = test: Antiviral activity against Hepatitis B virus infected in human HePAD38 cells assessed as inhibition of viral DNA replication by qPCR analysis; format: functional, organism-based
[4] = Selectivity index, ratio of CC50 for cytotoxicity against human HePAD38 cells to EC50 for antiviral activity against Hepatitis B virus infected in human HePAD38 cells; format: toxicity, cell-based; conditions: read-out: Ratio CC50/EC50
[5] = Half life in Sprague-Dawley rat at 2 mg/kg, iv by LC-MS/MS analysis; format: ADME, organism-based; conditions: in vivo
[6] = AUC(0 to infinity) in Sprague-Dawley rat at 2 mg/kg, iv by LC-MS/MS analysis; format: ADME, organism-based; parameters: dose 2 mg/kg, route iv; conditions: in vivo
[7] = Half life in human plasma at 100 uM by LC-MS/MS analysis; format: ADME, cell-free
[8] = Cmax in Sprague-Dawley rat at 2 mg/kg, iv by LC-MS/MS analysis; format: ADME, organism-based; parameters: dose 2 mg/kg, route iv; conditions: in vivo
[9] = Metabolic stability of the compound in human liver microsomes assessed as parent compound remaining at 100 uM incubated for 60 mins in absence of NADPH by LC-MS/MS analysis; format: ADME, Microsome; conditions: read-out: Stability
[10] = Metabolic stability of the compound in human liver microsomes assessed as parent compound remaining at 100 uM incubated for 60 mins in presence of NADPH by LC-MS/MS analysis; format: ADME, Microsome; conditions: read-out: Stability
Hepatitis B virus [11] = test: Antiviral activity against Hepatitis B virus infected in C57BL/6J mouse assessed as inhibition of viral DNA level in serum at 25 mg/kg/day, po for 18 days by qPCR analysis; format: functional, organism-based; conditions: time 18.0 day
[12] = AUC(0 to infinity) in Sprague-Dawley rat at 20 mg/kg, po by LC-MS/MS analysis; format: ADME, organism-based; parameters: dose 20 mg/kg, route po; conditions: in vivo
Hepatitis B virus [13] = test: Antiviral activity against Hepatitis B virus infected in human HLCZ01 cells assessed as inhibition of HBV virion production by measuring inhibition of viral DNA replication incubated for 6 days by qPCR analysis; format: functional, organism-based
[14] = Hepatotoxicity in C57BL/6J mouse infected with Hepatitis B virus assessed as serum ALT level at 25 mg/kg/day, po for 18 days by colorimetry; format: toxicity, organism-based; conditions: in vivo, 432 h, time 18 day
[15] = Half life in human liver microsomes at 100 uM preincubated for 10 mins followed by incubation with NADPH regenerating system for 30 mins by LC-MS/MS analysis; format: ADME, Microsome; conditions: time 40 min
[16] = Cytotoxicity against human HLCZ01 cells assessed as reduction in cell viability upto 30 uM incubated for 72 hrs by CCK8 assay; format: toxicity, cell-based; conditions: hlcz01, 72 h
Hepatitis B virus [17] = test: Antiviral activity against Hepatitis B virus infected in human HLCZ01 cells assessed as reduction in HBsAg level at 0.03 to 3 uM incubated for 6 days by ELISA; format: functional, organism-based; conditions: dose 0.03-3 µM, time 6.0 day
[18] = Tmax in Sprague-Dawley rat at 20 mg/kg, po by LC-MS/MS analysis; format: ADME, organism-based; conditions: in vivo
[19] = Cmax in Sprague-Dawley rat at 20 mg/kg, po by LC-MS/MS analysis; format: ADME, organism-based; parameters: dose 20 mg/kg, route po; conditions: in vivo
[20] = Oral bioavailability in Sprague-Dawley rat at 20 mg/kg by LC-MS/MS analysis; format: ADME, organism-based; conditions: in vivo
Hepatitis B virus [21] = test: Antiviral activity against Hepatitis B virus infected in C57BL/6J mouse assessed as reduction in HBsAg level in serum at 25 mg/kg/day, po for 18 days by ELISA; format: functional, organism-based; conditions: time 18.0 day
[22] = MRT(0 to infinity) in Sprague-Dawley rat at 20 mg/kg, po by LC-MS/MS analysis; format: ADME, organism-based; conditions: in vivo
[23] = MRT(0 to t) in Sprague-Dawley rat at 2 mg/kg, iv by LC-MS/MS analysis; format: ADME, organism-based; conditions: in vivo
Hepatitis B virus [24] = test: Antiviral activity against Hepatitis B virus infected in C57BL/6J mouse assessed as reduction in HBcAg expression […] at 25 mg/kg/day, po for 18 days by immunohistochemistry; format: functional, organism-based; conditions: time 18.0 day
[25] = AUC(0 to t) in Sprague-Dawley rat at 20 mg/kg, po by LC-MS/MS analysis; format: ADME, organism-based; parameters: dose 20 mg/kg, route po; conditions: in vivo
[26] = Hepatotoxicity in C57BL/6J mouse infected with Hepatitis B virus assessed as serum AST level at 25 mg/kg/day, po for 18 days by colorimetry; format: toxicity, organism-based; conditions: in vivo, 432 h, time 18 day
[27] = Half life in Sprague-Dawley rat at 20 mg/kg, po by LC-MS/MS analysis; format: ADME, organism-based; conditions: in vivo
[28] = MRT(0 to t) in Sprague-Dawley rat at 20 mg/kg, po by LC-MS/MS analysis; format: ADME, organism-based; conditions: in vivo
[29] = Volume of distribution at steady state in Sprague-Dawley rat at 2 mg/kg, iv by LC-MS/MS analysis; format: ADME, organism-based; conditions: in vivo
[30] = AUC(0 to t) in Sprague-Dawley rat at 2 mg/kg, iv by LC-MS/MS analysis; format: ADME, organism-based; parameters: dose 2 mg/kg, route iv; conditions: in vivo

Core antigen, sequence (Q03732 whole entry): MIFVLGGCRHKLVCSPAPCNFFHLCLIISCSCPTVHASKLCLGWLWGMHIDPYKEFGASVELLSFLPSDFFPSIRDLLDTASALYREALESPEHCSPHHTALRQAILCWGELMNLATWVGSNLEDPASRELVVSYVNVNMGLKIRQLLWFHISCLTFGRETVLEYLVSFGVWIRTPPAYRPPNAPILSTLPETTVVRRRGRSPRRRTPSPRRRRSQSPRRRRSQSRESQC

O=C(O)Cc1ccccc1Nc1c(Cl)cccc1Cl [DICLOFENAC]
microsomal CLint at 100 µM [1]: 257 µL/min/mg

O=C(Nc1cc(F)c(F)c(F)c1)c1ccc(F)c(S(=O)(=O)N2CCC(O)CC2)c1
IC50 (Core antigen): 1.53 µM
CC50 at 72 h [2]: 16.7 µM
EC50 (Hepatitis B virus [3]): 0.35 µM
selectivity ratio [4]: 47.6

C=CCNC(=S)Nc1cc(C(=O)Nc2ccc(F)c(C)c2)c(C)cc1F
half-life [5]: 0.98 h
AUC(0-inf) [6]: 3260 ng·h/mL
half-life at 100 µM [7]: 0.9 h
Cmax [8]: 5390 ng/mL
remaining at 1 h, 100 µM [9]: 72.6%
remaining at 1 h, 100 µM [10]: 31.2%
Activity (Hepatitis B virus [11]): Active
AUC(0-inf) [12]: 22000 ng·h/mL
EC50 (Hepatitis B virus [13]; HLCZ01, 144 h): 0.033 µM
Activity (Hepatitis B virus [13]; time 6.0 day): Dose-Dependent Effect
IC50 (Core antigen): 0.88 µM
Activity [14]: Non-Toxic
half-life at 100 µM [15]: 0.635 h
Activity [16]: Non-Toxic
Activity (Hepatitis B virus [17]): inactive
CC50 at 72 h [2]: 26.6 µM
microsomal CLint at 100 µM [1]: 36.4 µL/min/mg
EC50 (Hepatitis B virus [3]): 0.012 µM
Tmax [18]: 1.83 h
Cmax [19]: 4770 ng/mL
bioavailability [20]: 67.7%
Activity (Hepatitis B virus [21]): inactive
MRT inf [22]: 3.26 h
MRT last [23]: 0.82 h
Activity (Hepatitis B virus [24]): Active
AUC(0-t) [25]: 22000 ng·h/mL
Activity [26]: Non-Toxic
selectivity ratio [4]: 2210
half-life [27]: 1.67 h
MRT last [28]: 3.16 h
Vdss [29]: 0.51 L/kg
AUC(0-t) [30]: 3260 ng·h/mL
